# Laboratory results taken from patent publication US12091426B2, “Bifunctional degraders of hematopoietic progenitor kinase and therapeutic uses thereof” (Nurix Therapeutics, Inc., priority 2021, dated 2024).
# Molecular target: T1, HPK1 (Homo sapiens, UniProt Q92918)
# T1 construct: A HiBiT tag was introduced by CRISPR on the N terminus of HPK1 in Jurkat cells; host or cells: Jurkat cells (ATCC TIB-152), monoclonal line with CRISPR knock-in of HiBiT at the endogenous HPK1 locus
# Test: HPK1 Cellular HiBit Degradation Assay
# Format: cell-based
# Conditions: HiBiT HPK1 Jurkat cells, 24 hrs; for DC50: concentration at which 50% of HPK1 was remaining, read-out: DC50 Category; for Dmax: Jurkat, read-out: Dmax Category
# In short: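 Jurkat cells with CRISPR knock-in N-terminal HiBiT-HPK1 were treated with CTMs (11-point, 3.16-fold, 10 uM to 0.1 nM final) for 24 hrs at 37° C. HiBiT lytic luminescence, with parental Jurkat as background and DMSO as 100%, gave % HPK1 remaining; four-parameter fit yielded DC50 and Dmax (100 minus lowest % remaining).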
# [1] = maximum degradation vs DMSO vehicle control
# T1 sequence (Q92918 whole entry): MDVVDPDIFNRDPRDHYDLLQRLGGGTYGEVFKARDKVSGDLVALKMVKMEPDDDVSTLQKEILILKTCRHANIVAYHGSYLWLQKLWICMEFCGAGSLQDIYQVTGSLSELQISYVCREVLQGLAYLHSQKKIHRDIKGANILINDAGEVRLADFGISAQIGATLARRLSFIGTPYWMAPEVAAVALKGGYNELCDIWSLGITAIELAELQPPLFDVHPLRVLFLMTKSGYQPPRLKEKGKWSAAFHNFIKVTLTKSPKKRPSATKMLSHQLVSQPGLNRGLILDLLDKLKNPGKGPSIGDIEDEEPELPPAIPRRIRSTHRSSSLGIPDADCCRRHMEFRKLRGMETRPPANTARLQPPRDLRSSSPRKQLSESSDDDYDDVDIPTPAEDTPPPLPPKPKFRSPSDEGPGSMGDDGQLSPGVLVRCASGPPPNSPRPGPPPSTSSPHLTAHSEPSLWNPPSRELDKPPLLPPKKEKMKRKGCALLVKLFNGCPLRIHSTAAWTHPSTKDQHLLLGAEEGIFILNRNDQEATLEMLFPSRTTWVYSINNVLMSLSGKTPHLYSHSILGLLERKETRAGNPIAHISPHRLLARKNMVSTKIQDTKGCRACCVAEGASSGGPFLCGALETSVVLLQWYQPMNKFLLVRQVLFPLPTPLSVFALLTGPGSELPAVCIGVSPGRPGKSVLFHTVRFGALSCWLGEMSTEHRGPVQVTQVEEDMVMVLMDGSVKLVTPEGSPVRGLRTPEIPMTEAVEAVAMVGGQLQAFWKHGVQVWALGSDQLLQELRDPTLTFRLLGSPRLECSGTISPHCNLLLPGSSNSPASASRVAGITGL
compound,measurement,setting,value
"CC(C)n1cnc2cc(-c3ccc4c(c3)N([C@H]3C[C@@H](N5CCCCC5)C3)C(=O)C43CCN(C(=O)C4CCN(C(=O)[C@H]5CC[C@H](n6cc7cc(C8CCC(=O)NC8=O)ccc7n6)CC5)CC4)CC3)nc(NC3CC3)c21 (stereo partly drawn) [Example 179, 3-{2-[(1R,4R)-4-[4-({6-[4-(cyclopropylamino)-3-(propan-2-yl)-3H-imidazo[4,5-c]pyridin-6-yl]-2-oxo-1-[(1S,3S)-3-(piperidin-1-yl)cyclobutyl]-1,2-dihydrospiro[indole-3,4′-piperidin]-1′-yl}carbonyl)piperidine-1-carbonyl]cyclohexyl]-2H-indazol-5-yl}piperidine-2,6-dione]",DC50,,100 to 500 nM
same,Dmax,[1],70 to 85%
CC(C)n1cnc2cc(-c3ccc4c(c3)N([C@H]3C[C@@H](N5CCCCC5)C3)C(=O)C43CCN(C(=O)N4CCN(C(=O)C5CCN(c6ccc(C7CCC(=O)NC7=O)cn6)CC5)CC4)CC3)nc(NC3CC3)c21 (stereo partly shown) [Example 180],DC50,,< 100 nM
same,Dmax,[1],70 to 85%
"CC(C)n1cnc2cc(-c3ccc4c(c3)N([C@H]3C[C@@H](N5CCCCC5)C3)C(=O)C43CCN(C(=O)N4CCC(C(=O)N5CCN(c6ccc(C7CCC(=O)NC7=O)cn6)CC5)CC4)CC3)nc(NC3CC3)c21 (stereo partly drawn) [Example 181, 3-(6-{4-[1-({6-[4-(cyclopropylamino)-3-(propan-2-yl)-3H-imidazo[4,5-c]pyridin-6-yl]-2-oxo-1-[(1S,3S)-3-(piperidin-1-yl)cyclobutyl]-1,2-dihydrospiro[indole-3,4′-piperidin]-1′-yl}carbonyl)piperidine-4-carbonyl]piperazin-1-yl}pyridin-3-yl)piperidine-2,6-dione]",DC50,,100 to 500 nM
same,Dmax,[1],50 to 70%
"CC(C)n1cnc2cc(-c3ccc4c(c3)N([C@H]3C[C@@H](N5CCCCC5)C3)C(=O)C43CCN(C(=O)C4CC5(C4)CN(C(=O)C4CCN(c6ccc(C7CCC(=O)NC7=O)cn6)CC4)C5)CC3)nc(NC3CC3)c21 (stereo partly drawn) [Example 182, 3-(6-{4-[6-({6-[4-(cyclopropylamino)-3-(propan-2-yl)-3H-imidazo[4,5-c]pyridin-6-yl]-2-oxo-1-[(1S,3S)-3-(piperidin-1-yl)cyclobutyl]-1,2-dihydrospiro[indole-3,4′-piperidine]-1′-yl}carbonyl)-2-azaspiro[3.3]heptane-2-carbonyl]piperidin-1-yl}pyridin-3-yl)piperidine-2,6-dione]",DC50,,< 100 nM
same,Dmax,[1],> 85%
"CC(C)n1cnc2cc(-c3ccc4c(c3)N(C3CC(N5CCCCC5)C3)C(=O)C43CCN(CC(=O)N4CCN(C(=O)C5CCN(c6ccc(C7CCC(=O)NC7=O)cn6)CC5)CC4)CC3)nc(NC3CC3)c21 (stereo not shown) [Example 183, 3-(6-{4-[4-(2-{6-[4-(cyclopropylamino)-3-(propan-2-yl)-3H-imidazo[4,5-c]pyridin-6-yl]-2-oxo-1-[3-(piperidin-1-yl)cyclobutyl]-1,2-dihydrospiro[indole-3,4′-piperidine]-1′-yl}Acetyl)piperazine-1-carbonyl]piperidin-1-yl}pyridin-3-yl)piperidine-2,6-dione]",DC50,,< 100 nM
same,Dmax,[1],> 85%
"CC(C)n1cnc2cc(-c3ccc4c(c3)N([C@H]3C[C@@H](N5CCCCC5)C3)C(=O)C43CCN(C(=O)C4(C)CCN(C(=O)N5CC6(C5)CN(c5ccc(C7CCC(=O)NC7=O)cn5)C6)CC4)CC3)nc(NC3CC3)c21 (stereo partly drawn) [Example 184, 3-(6-{6-[4-({6-[4-(cyclopropylamino)-3-(propan-2-yl)-3H-imidazo[4,5-c]pyridin-6-yl]-2-oxo-1-[(1S,3S)-3-(piperidin-1-yl)cyclobutyl]-1,2-dihydrospiro[indole-3,4′-piperidine]-1′-yl}carbonyl)-4-methylpiperidine-1-carbonyl]-2,6-diazaspiro[3.3]heptan-2-yl}pyridin-3-yl)piperidine-2,6-dione]",DC50,,100 to 500 nM
same,Dmax,[1],50 to 70%
"CC(C)n1cnc2cc(-c3ccc4c(c3)N([C@H]3C[C@@H](N5CCCCC5)C3)C(=O)C43CCN(C(=O)C4(C)CCN(C(=O)[C@H]5CC[C@H](Nc6ccc(N7CCC(=O)NC7=O)cn6)CC5)CC4)CC3)nc(NC3CC3)c21 [Example 192, 1-(6-{[(1R,4R)-4-[4-({6-[4-(cyclopropylamino)-3-(propan-2-yl)-3H-imidazo[4,5-c]pyridin-6-yl]-2-oxo-1-[(1S,3S)-3-(piperidin-1-yl)cyclobutyl]-1,2-dihydrospiro[indole-3,4′-piperidin]-1′-yl}carbonyl)-4-methylpiperidine-1-carbonyl]cyclohexyl]amino}pyridin-3-yl)-1,3-diazinane-2,4-dione]",DC50,,< 100 nM
same,Dmax,[1],70 to 85%
"CC(C)n1cnc2cc(-c3ccc4c(c3)N([C@H]3C[C@@H](N5CCCCC5)C3)C(=O)C43CCN(CC(=O)N(C)C4CCN(C(=O)C5CCN(c6ccc(C7CCC(=O)NC7=O)cn6)CC5)CC4)CC3)nc(NC3CC3)c21 (stereo partly drawn) [Example 200, 2-{6-[4-(cyclopropylamino)-3-(propan-2-yl)-3H-imidazo[4,5-c]pyridin-6-yl]-2-oxo-1-[(1S,3S)-3-(piperidin-1-yl)cyclobutyl]-1,2-dihydrospiro[indole-3,4′-piperidin]-1′-yl}-N-(1-{1-[5-(2,6-dioxopiperidin-3-yl)pyridin-2-yl]piperidine-4-carbonyl}piperidin-4-yl)-N-methylacetamide]",DC50,,100 to 500 nM
same,Dmax,[1],> 85%
"CC(C)n1cnc2cc(-c3ccc4c(c3)N([C@H]3C[C@@H](N5CCCCC5)C3)C(=O)C43CCN(CC(=O)N(C)C4CCN(C(=O)C5CCN(c6cc(C7CCC(=O)NC7=O)ccn6)CC5)CC4)CC3)nc(NC3CC3)c21 (stereo partly drawn) [Example 201, 2-{6-[4-(cyclopropylamino)-3-(propan-2-yl)-3H-imidazo[4,5-c]pyridin-6-yl]-2-oxo-1-[(1S,3S)-3-(piperidin-1-yl)cyclobutyl]-1,2-dihydrospiro[indole-3,4′-piperidin]-1′-yl}-N-(1-{1-[4-(2,6-dioxopiperidin-3-yl)pyridin-2-yl]piperidine-4-carbonyl}piperidin-4-yl)-N-methylacetamide]",DC50,,100 to 500 nM
same,Dmax,[1],50 to 70%
"CC(C)n1cnc2cc(-c3ccc4c(c3)N([C@H]3C[C@@H](N5CCCCC5)C3)C(=O)C43CCN(C(=O)C4(C)CCN(C(=O)C5CCN(c6ccc(N7CCC(=O)NC7=O)cc6)CC5)CC4)CC3)nc(NC3CC3)c21 [Example 211, 1-(4-{4-[4-({6-[4-(cyclopropylamino)-3-(propan-2-yl)-3H-imidazo[4,5-c]pyridin-6-yl]-2-oxo-1-[(1S,3S)-3-(piperidin-1-yl)cyclobutyl]-1,2-dihydrospiro[indole-3,4′-piperidin]-1′-yl}carbonyl)-4-methylpiperidine-1-carbonyl]piperidin-1-yl}phenyl)-1,3-diazinane-2,4-dione]",DC50,,< 100 nM
same,Dmax,[1],70 to 85%
"CC(C)n1cnc2cc(-c3ccc4c(c3)N([C@H]3C[C@@H](N5CCCCC5)C3)C(=O)C43CCN(C(=O)C4(C)CCN(C(=O)C5CCN(c6ccc([C@H]7CCC(=O)NC7=O)cn6)CC5)CC4)CC3)nc(NC3CC3)c21 [Example 213, (3R)-3-(6-{4-[4-({6-[4-(cyclopropylamino)-3-(propan-2-yl)-3H-imidazo[4,5-c]pyridin-6-yl]-2-oxo-1-[(1S,3S)-3-(piperidin-1-yl)cyclobutyl]-1,2-dihydrospiro[indole-3,4′-piperidin]-1′-yl}carbonyl)-4-methylpiperidine-1-carbonyl]piperidin-1-yl}pyridin-3-yl)piperidine-2,6-dione]",DC50,,< 100 nM
same,Dmax Category,[1],B (B: >70%-<85%)
"CC(C)n1cnc2cc(-c3ccc4c(c3)N([C@H]3C[C@@H](N5CCCCC5)C3)C(=O)C43CCN(C(=O)[C@@H]4CCN(C(=O)C5CCN(c6ccc(N7CCC(=O)NC7=O)cc6)CC5)C4)CC3)nc(NC3CC3)c21 [Example 233, 1-(4-{4-[(3R)-3-({6-[4-(cyclopropylamino)-3-(propan-2-yl)-3H-imidazo[4,5-c]pyridin-6-yl]-2-oxo-1-[(1S,3S)-3-(piperidin-1-yl)cyclobutyl]-1,2-dihydrospiro[indole-3,4′-piperidin]-1′-yl}carbonyl)pyrrolidine-1-carbonyl]piperidin-1-yl}phenyl)-1,3-diazinane-2,4-dione]",DC50,,< 100 nM
same,Dmax,[1],70 to 85%
"CC(C)n1cnc2cc(-c3ccc4c(c3)N([C@H]3C[C@@H](N5CCCCC5)C3)C(=O)C43CCN(C(=O)C4[C@@H]5C[C@H]4CN(C(=O)[C@H]4CC[C@H](Oc6ccc(C7CCC(=O)NC7=O)cc6)CC4)C5)CC3)nc(NC3CC3)c21 (stereo partly drawn) [Example 238, 3-(4-(((1R,4R)-4-((1R,5S,6S)-6-(6-(4-(cyclopropylamino)-3-isopropyl-3H-imidazo[4,5-c]pyridin-6-yl)-2-oxo-1-((1S,3S)-3-(piperidin-1-yl)cyclobutyl)spiro[indoline-3,4′-piperidine]-1′-carbonyl)-3-azabicyclo[3.1.1]heptane-3-carbonyl)cyclohexyl)oxy)phenyl)piperidine-2,6-dione]",DC50,,< 100 nM
same,Dmax,[1],> 85%
"CC(C)n1cnc2cc(-c3ccc4c(c3)N([C@H]3C[C@@H](N5CCCCC5)C3)C(=O)C43CCN(C(=O)[C@H]4[C@@H]5C[C@H]4CN(C(=O)C4CCN(c6ccc(C7CCC(=O)NC7=O)cn6)CC4)C5)CC3)nc(NC3CC3)c21 (stereo partly drawn) [Example 239, 3-(6-(4-((1R,5S,6S)-6-(6-(4-(cyclopropylamino)-3-isopropyl-3H-imidazo[4,5-c]pyridin-6-yl)-2-oxo-1-((1S,3S)-3-(piperidin-1-yl)cyclobutyl)spiro[indoline-3,4′-piperidine]-1′-carbonyl)-3-Azabicyclo[3.1.1]heptane-3-carbonyl)piperidin-1-yl)pyridin-3-yl)piperidine-2,6-dione]",DC50,,< 100 nM
same,Dmax,[1],50 to 70%
